Laboratory results as given in the Biogen ADME set (Fang et al. 2023).
In brackets after ≈: the same amount, converted by molar mass.

Settings: for aqueous solubility: pH 6.8

| Compound | MDR1-MDCK efflux ratio | intrinsic clearance, human liver microsomes | intrinsic clearance, rat liver microsomes | aqueous solubility | fraction unbound, human plasma |
| --- | --- | --- | --- | --- | --- |
| Cn1c(NC(=O)c2ccn(COc3ccccc3)n2)nc2ccccc21 |  |  |  | 5.8 µg/mL (≈ 16.7 µM) |  |
| Cc1ccc2nc(C)c(C(=O)NOCc3ccccc3)cc2c1 | 0.666 | 19.3 mL/min/kg | 308 mL/min/kg | 20.2 µg/mL (≈ 65.8 µM) |  |
| O=c1oc2cccnc2n1Cc1ccccn1 | 2.49 | ≤ 4.74 mL/min/kg | ≤ 10.7 mL/min/kg |  |  |
| CCc1cccc(C)c1NC(=O)c1ccc(C)o1 | 0.661 | ≤ 4.74 mL/min/kg | 172 mL/min/kg |  |  |
| COc1ccc(OC)c(Cn2cnc3cn(C)nc3c2=O)c1 | 2.56 | ≤ 4.74 mL/min/kg | 50.8 mL/min/kg |  |  |
| NC(=O)COc1ccccc1-c1ccccc1 | 0.621 | 25.9 mL/min/kg | 75.6 mL/min/kg | 39 µg/mL (≈ 172 µM) |  |
| Cc1cc(-c2nc(N(C)C)no2)cc(O)n1 | 0.726 | ≤ 4.74 mL/min/kg | 31.7 mL/min/kg |  |  |
| CN(Cc1cccnc1)Cc1ccc(C#N)o1 | 0.648 | 9.78 mL/min/kg | 69.7 mL/min/kg | 30.7 µg/mL (≈ 135 µM) |  |
| Cc1nc2ncc3c(n2n1)CC(C)(C)CC3=O | 0.814 | ≤ 4.74 mL/min/kg | ≤ 10.7 mL/min/kg |  |  |
| CC(C)c1cc(NC(=O)Cn2nc(-c3ccccc3)ccc2=O)[nH]n1 |  |  |  | 6.51 µg/mL (≈ 19.3 µM) |  |
| Cc1nc2c(c(N(C)Cc3ccccc3)n1)CCN(Cc1ccccc1)C2 | 0.742 | 657 mL/min/kg | 4170 mL/min/kg | 29.7 µg/mL (≈ 82.8 µM) |  |
| O=C(Nc1c(F)cccc1Oc1ccccc1)c1cnccn1 |  | 34.6 mL/min/kg | 1080 mL/min/kg |  |  |
| Cc1nccn1CCCN1C(=O)SC(C)(C)C1=O | 2.51 | ≤ 4.74 mL/min/kg | 83 mL/min/kg | 29.2 µg/mL (≈ 109 µM) |  |
| O=C(NO)c1cnc(NC2(c3cccc(F)c3)CCCCC2)nc1 |  | 14.4 mL/min/kg | 306 mL/min/kg |  |  |
| CN(C)C1=N[C@@H]2[C@@H](O)[C@H](O)[C@@H](CO)O[C@@H]2S1 | 0.274 | ≤ 4.74 mL/min/kg | ≤ 10.7 mL/min/kg | 36.7 µg/mL (≈ 148 µM) |  |
| CC(C)CC(=O)Nc1cccnc1N(C)C | 0.597 | ≤ 4.74 mL/min/kg | 57.9 mL/min/kg | 30.3 µg/mL (≈ 137 µM) |  |
| CON(C)C(=O)CCc1c(C)nn(C)c1C | 1.33 | ≤ 4.74 mL/min/kg | 28.3 mL/min/kg | 34.2 µg/mL (≈ 152 µM) |  |
| Cc1cccn(Cc2cccnc2)c1=O | 0.609 | ≤ 4.74 mL/min/kg | ≤ 10.7 mL/min/kg | 47 µg/mL (≈ 235 µM) |  |
| N#Cc1cnn(-c2nc(-c3ccc(Br)s3)cs2)c1N |  |  |  | 1.9 µg/mL (≈ 5.39 µM) |  |
| Cn1nc(-c2cc(F)cc(F)c2)cc1N | 0.607 | 43.8 mL/min/kg | 48.7 mL/min/kg |  |  |
| Cc1nc(C)n(-c2ccccc2NC(=O)c2cc(C#N)cn2C)n1 |  | 11.6 mL/min/kg | 163 mL/min/kg |  |  |
| COc1cc(Nc2c(C#N)cnc3cc(OC)c(OC)cc23)c(Cl)cc1Cl |  | 161 mL/min/kg | 443 mL/min/kg |  |  |
| COc1cccc(CN2CCN(C(=O)Cc3ccc(C)cc3)[C@@H](C)C2)c1 | 0.739 | 230 mL/min/kg | 988 mL/min/kg | 44 µg/mL (≈ 125 µM) |  |
| c1csc(Cc2nc(-c3cnccn3)no2)c1 |  | 10.8 mL/min/kg | 80.8 mL/min/kg |  |  |
| Cc1cc(C(=O)O)nn1-c1ccccn1 |  | ≤ 4.74 mL/min/kg | ≤ 10.7 mL/min/kg |  |  |

The next lines start with the values.

| MDR1-MDCK efflux ratio | intrinsic clearance, human liver microsomes | intrinsic clearance, rat liver microsomes | aqueous solubility | fraction unbound, human plasma | Compound |
| --- | --- | --- | --- | --- | --- |
| 16.9 | ≤ 4.74 mL/min/kg | 20.2 mL/min/kg | 47.3 µg/mL (≈ 156 µM) |  | CCOC1CCN(C(=O)Cn2c(=O)[nH]c3ccccc32)CC1 |
| 0.485 | 44.5 mL/min/kg | 631 mL/min/kg | 29.7 µg/mL (≈ 81.9 µM) |  | COc1ccc2nc(CN3CCC(O)(c4ccc(C)cc4)CC3)ccc2c1 |
| 0.697 |  |  | 1 µg/mL (≈ 2.53 µM) |  | O=S(=O)(c1ccccc1Cl)N1CCCc2cnc(N3CCOCC3)nc21 |
|  | 75.6 mL/min/kg | 89 mL/min/kg |  |  | CCCN(C(=O)c1ccc(COC)o1)c1nc2c(s1)CCc1c-2cnn1C |
| 15.2 | 40.4 mL/min/kg | 1320 mL/min/kg |  |  | O=C(C1CC1)N1CCC(CNS(=O)(=O)N2CCCCCC2)CC1 |
| 1.08 | 7.82 mL/min/kg | 86.8 mL/min/kg | 35.9 µg/mL (≈ 137 µM) |  | COc1ccc(C(=O)N2CCCC2)cc1NC(C)C |
| 32.9 | ≤ 4.74 mL/min/kg | 28.8 mL/min/kg | 57.1 µg/mL (≈ 158 µM) |  | Cc1ccc2nc3c(c(C(=O)NCc4nnc5n4CCC5)c2c1)CCCC3 |
|  |  |  | 52.4 µg/mL (≈ 157 µM) |  | Cc1nc2ccc(C(=O)NCCCN3Cc4ccccc4C3)cc2[nH]1 |
| 1.52 | 6.77 mL/min/kg | 78.8 mL/min/kg | 62.3 µg/mL (≈ 178 µM) |  | O=C(c1ccccc1)N1CCN2C(=O)N(Cc3ccccc3)C(=O)[C@H]2C1 |
| 0.969 | ≤ 4.74 mL/min/kg | ≤ 10.7 mL/min/kg |  |  | CCOc1cccc(NS(C)(=O)=O)n1 |
| 17.1 | ≤ 4.74 mL/min/kg | 51.5 mL/min/kg | 53.4 µg/mL (≈ 176 µM) |  | COc1cccc2c1OC(C)(C)[C@@H]1C[C@H]3CNCC[C@H]3O[C@@H]21 |
| 2.44 | 360 mL/min/kg | 2530 mL/min/kg |  |  | O=C(c1ccc(Cl)cc1)N1CCC[C@@H](C(=O)N2CCc3ccccc3C2)C1 |
|  | 125 mL/min/kg | 1650 mL/min/kg | 49.8 µg/mL (≈ 139 µM) |  | O=C(C1CCCN(c2ccc(Cl)nn2)C1)N1CCc2ccccc2C1 (centres undefined) |
| 0.789 |  |  | 0.26 µg/mL (≈ 0.704 µM) |  | Cc1ccc(-c2nc(CN3C(=O)C(=O)N(C4CCCC4)C3=O)cs2)cc1 |
| 17.5 | ≤ 4.74 mL/min/kg | 85 mL/min/kg | 35.8 µg/mL (≈ 139 µM) |  | O=C(CCCc1nc2ccccc2[nH]1)N1CCCC1 |
| 2.03 | 230 mL/min/kg | 1610 mL/min/kg |  |  | CC1CCC(N(Cc2nnc(C3CCC3)o2)C2CCC(O)CC2)CC1 (centres undefined) |
| 0.677 | ≤ 4.74 mL/min/kg | 106 mL/min/kg | 61 µg/mL (≈ 181 µM) |  | Cc1nccc(-c2ccc(-c3noc(CN4CCOCC4)n3)cc2)n1 |
|  |  |  | 1.85 µg/mL (≈ 5.03 µM) |  | Cc1sc2ncnc(N3CCC(C(=O)Nc4ccccn4)CC3)c2c1C |
| 131 | 6.28 mL/min/kg | 1140 mL/min/kg |  |  | CN1CCC(N(Cc2cccnc2)C(=O)NCCCc2ccccc2)CC1 |

| MDR1-MDCK efflux ratio | intrinsic clearance, human liver microsomes | intrinsic clearance, rat liver microsomes | aqueous solubility | fraction unbound, human plasma | Compound |
| --- | --- | --- | --- | --- | --- |
| 45.4 | ≤ 4.74 mL/min/kg | ≤ 10.7 mL/min/kg | 51.8 µg/mL (≈ 207 µM) |  | CC(C)c1nnc(CNC(=O)C2(C)CCC2)n1C |
| 2.68 | 23.8 mL/min/kg | 393 mL/min/kg |  |  | O=C(CNc1cc(N2CCCC2=O)ccc1F)N1CCCCCC1 |
|  |  |  | 33.1 µg/mL (≈ 86.3 µM) |  | Cc1ccc(S(=O)(=O)NC(=O)c2c(C)cc3n2CCn2c(C)ccc2-3)cc1 |
| 41.3 | 8.28 mL/min/kg | 118 mL/min/kg | 66.6 µg/mL (≈ 169 µM) |  | Cc1cc(C)nc(Nc2ccc(C3CCCN(CC(=O)N4CCCC4)C3)nc2)n1 (centres undefined) |
| 38.2 |  |  |  |  | COc1cccc(S(=O)(=O)N2CCOC(c3c(C(N)=O)sc4ncccc34)C2)c1 (centres undefined) |
| 0.812 | 10.4 mL/min/kg | 263 mL/min/kg |  |  | COCCc1noc(CN(C)C(=O)c2ccc3c(c2)CCC3)n1 |
| 0.595 | 12.1 mL/min/kg | 424 mL/min/kg | 36.9 µg/mL (≈ 119 µM) |  | O=C1c2cccc3cccc(c23)C(=O)N1CCN1CCOCC1 |
| 1.52 | ≤ 4.74 mL/min/kg | ≤ 10.7 mL/min/kg | 33.3 µg/mL (≈ 122 µM) |  | CON(C)C(=O)c1cc(C)ccc1NS(C)(=O)=O |
| 0.493 | 27.7 mL/min/kg | 790 mL/min/kg | 45.4 µg/mL (≈ 139 µM) |  | Cc1ccc(CN2CC[C@H](c3nnc(-c4ccccc4F)o3)C2)o1 |
| 2.15 |  |  | 0.2 µg/mL (≈ 0.526 µM) |  | COc1ccccc1N1CCN(c2nc(-c3ccc(F)cc3)cc(=O)[nH]2)CC1 |
|  | 432 mL/min/kg | 1450 mL/min/kg |  |  | Cc1cc(OCC(=O)N2CCC(n3c(=O)[nH]c4ccccc43)CC2)ccc1Cl |
| 5.94 | 16.3 mL/min/kg | 867 mL/min/kg | 83.4 µg/mL (≈ 210 µM) |  | COc1ccc(CCC(=O)N2CCN(C(=O)c3cc4n(n3)CCCC4)CC2)cc1 |
| 0.835 | ≤ 4.74 mL/min/kg |  |  | 0.769 | CN(C(=O)c1cc(N2CCNC2=O)ccc1F)C1CCNC1 (centres undefined) |
| 0.45 | 12.2 mL/min/kg | 188 mL/min/kg | 43 µg/mL (≈ 146 µM) |  | CCn1cc(C2CCN(Cc3ccc(C#N)cc3)CC2)cn1 |
|  | 204 mL/min/kg | 469 mL/min/kg |  |  | CC1(C)CC(=O)c2c(C(F)(F)F)nn(-c3ccc(C(N)=O)c(N[C@H]4CC[C@H](OC(=O)CN)CC4)c3)c2C1 |
|  | 10.2 mL/min/kg | 131 mL/min/kg |  |  | COCc1ncc(CN2CCC(Oc3cccc(C)c3)CC2)cn1 |
| 2.5 | 22.8 mL/min/kg | 474 mL/min/kg | 2.15 µg/mL (≈ 4.48 µM) |  | O=C(/C=C/c1ccc(Cl)cc1)N1CCC2(CC1)CN(Cc1ccc(Cl)c(Cl)c1)C(=O)O2 |
|  | 7.33 mL/min/kg | 498 mL/min/kg |  |  | CCCn1ncc(CN2CCC(c3ncc[nH]3)CC2)c1C |
